Row | Structure (SMILES) | melting point [°C]
1 | CCCNC(=O)c1nc(CCl)n(-c2ccc(Cl)cc2C(=O)c2ccccc2Cl)n1 | 110 to 113
2 | Cc1nc(-c2ccccc2)nc(-c2cccc([N+](=O)[O-])c2)c1C(C)Br (configuration not stated) | 133 to 134
3 | O=C(NNc1ccc(Cl)cc1)c1cnc2ccc(I)cc2c1O | 250 to 252
4 | Cc1cc(SC2=C(O)CC(C3CCCC3)(C3CCCC3)OC2=O)c(C(C)(C)C)cc1CO | 158 to 160
5 | O=c1nc(-c2ccsc2)c2c(=O)nc(-c3ccsc3)c1=2 | > 400
6 | COC1(OC)CC2CC[C@@]1(CS(=O)(=O)N(C(C)C)C(C)C)C2(C)C | 73.8 to 74.6
7 | CCN(CC)CCC(=O)NC1(c2ccccc2Cl)C(=O)Nc2ccc(Cl)cc21 (configuration not stated) | 176 to 178
8 | O=C(O)c1ccc(-c2nn(-c3ccccc3C(=O)O)c3ccc([N+](=O)[O-])cc23)cc1 | 348 to 350
9 | Clc1c2ccccc2nc2c1c(CBr)nn2-c1ccccn1 | 203 to 205
10 | Cc1ccccc1Nc1nc(N)nc2ccccc12 | 273 to 275
11 | CN(C)Cc1cc(C(C)(C)c2cc(CN(C)C)c(O)c(CN(C)C)c2)cc(CN(C)C)c1O | 88 to 90
12 | CN(C)S(=O)(=O)c1ccccc1-c1cnc(N)c(C(=O)Nc2cccnc2)n1 | 222 to 223
13 | CCSc1cc(C)nc(SCC)c1NC(=O)CCCCSc1nc2c(C)c(Cl)cc(C(C)C)c2o1 | 141 to 142
14 | Cc1ccc(C(=O)NC(=O)N2CC2C#N)cc1 (configuration not stated) | 177 to 180
15 | CCOc1ccccc1O[C@@H](c1ccccc1)[C@@H](CO[Si](C)(C)C)OS(C)(=O)=O (racemic) | 80 to 82.5
16 | Cc1cc(Sc2ccccc2)ccc1N | 64 to 65
17 | O=C1OC(=O)c2cc(Oc3ccc(C(F)(F)F)cc3Cl)ccc21 | 88 to 91
18 | O=C1OCCC12Sc1ccc([N+](=O)[O-])cc1C2=O (configuration not stated) | 190 to 194
19 | CN1CCC(c2cc3c(N)cccc3c(=O)[nH]2)CC1 | 222 to 224
20 | NC(=O)NN=C1c2ncc(Cl)cc2C=CC1Cl (configuration not stated) | > 280
21 | ClCCN(CCCl)CCOc1cccc2c(Cl)c3ccccc3nc12 | 105 to 106

Row | Structure (SMILES) | melting point [°C]
22 | CCOC(=O)COCc1nnc(S)o1 | 101 to 103
23 | CCN1CCC(O)(c2cccc(Cl)c2F)C1 (configuration not stated) | 71 to 74
24 | Cc1nnc2n1-c1ccc([N+](=O)[O-])cc1C(c1ccccc1Cl)=CC2 | 225 to 227
25 | CCOC(=O)C1=C(N)N=C(OCC)C(C(=O)OCC)C1c1cccc(C(=O)OCC)c1 (configuration not stated) | 87
26 | N#Cc1c[nH]cc1-c1ccc(Cl)cc1C(=O)c1ccccc1 | 175 to 177
27 | CS(=O)(=O)c1ccc(-c2nc(C(F)(F)F)nc(OS(=O)(=O)c3cccc4ccccc34)c2-c2ccccc2)cc1 | 204 to 206
28 | C[C@@H]1c2ccccc2-c2ccc(Cl)cc2N1C(=O)c1ccc(O)cc1 | 274 to 276
29 | CCn1cc(C=CC(N)=O)c([N+](=O)[O-])n1 | 210 to 212
30 | O=C1CC2(CC2)CC(=O)O1 | 102
31 | CC(=O)OC(OC(C)=O)c1cccc(C(OC(C)=O)OC(C)=O)c1 | 110 to 130
32 | O=C(NCc1ccccn1)c1nc(-c2ccccc2)c(-c2ccc(=O)n(Cc3ccccc3)n2)s1 | 172 to 174
33 | CC(C)(c1ccccc1)c1ccc(N)c([N+](=O)[O-])c1 | 92 to 94
34 | CC1SC(=O)NN=C1c1cccc([N+](=O)[O-])c1 (configuration not stated) | 169 to 172
35 | COC(=O)Cc1cscc1C(=O)O | 121 to 122
36 | N#Cc1cc(-c2ccc(C(F)(F)F)cc2)ccc1-n1cc(-c2cc(F)cc(F)c2)nn1 | 229 to 230
37 | Nc1c([N+](=O)[O-])cc(F)c(Cl)c1Br | 146 to 147
38 | Nc1c([N+](=O)[O-])c(C(F)(F)F)nn1-c1c(Cl)cc(C(F)(F)F)cc1Cl | 214 to 215
39 | CC12CCC3C(CCC4C(=[N+]=[N-])C(=O)CCC43C)C1CCC2O (configuration not stated) | 171
40 | CCc1c(C2=NN=C(C)Cc3cc4[nH]c(=O)oc4cc32)sc2cccc(F)c12 | 297 to 299
41 | COc1cc2c(Nc3ccc(Cl)cc3F)c(C#N)cnc2cc1OCc1ccccc1 | 241 to 243

Second part, the compound after the results:

Row | melting point [°C] | Structure (SMILES)
42 | 157 to 160 | COc1ccccc1-n1c(=O)[nH]c2c(C(N)=O)nc(NCCO)nc21
43 | 131 | O=C(O)c1cc(Oc2ncc(C(F)(F)F)cc2Cl)ccc1[N+](=O)[O-]
44 | 185 | CCN(CC)C(=O)CCNC1(c2ccccc2Cl)C(=O)Nc2ccc(Cl)cc21 (configuration not stated)
45 | 140 | COC(=O)/C(=N/O)c1cccc([N+](=O)[O-])c1
46 | 108 to 110 | CC(C)C(NS(=O)(=O)c1ccc(Br)cc1)C(=O)OC(C)(C)C (configuration not stated)
47 | 72 to 120 | O=C(NCCCCCCOC(=O)N1CCC2(CCCC2)CC1)OC1CCN(C(=O)Oc2cccc(Oc3ccccc3)c2)CC1
48 | 178 to 180 | S=C(NCCC1=CCCCC1)Nc1nc2ccccc2[nH]1
49 | 115 to 116 | CCCCCCCOc1ccc(CCC(CO)(CCC)NC(=O)c2cc([N+](=O)[O-])cc([N+](=O)[O-])c2)cc1 (single isomer, unassigned; (-))
50 | 199 to 201 | Cc1cc(O)ccc1Nc1nc(N)ncc1Oc1ccc(Cl)cc1
51 | 246 to 247 | CC1(C)Oc2ccc(C#N)cc2C(c2ccc[nH]c2=O)C1O (configuration not stated)
52 | 109 to 112 | COc1cccc(CNC(=O)c2cc3c(=O)n(CCOc4ccc(Cl)cc4)c(=O)n(C)c3s2)c1
53 | 233 to 235 | O=C(O)[C@@H]1Cc2ncn(Cc3ccccc3)c2CN1C(=O)c1ccccc1
54 | 193 to 195 | CCOc1cc(OCC(=O)N2CCN(C(=O)OC(C)(C)C)CC2)cc2c1C(=O)N(COC(=O)c1c(Cl)cccc1Cl)S2(=O)=O
55 | 165 to 166 | CCOC(=O)C(C)Oc1ccc2c(=O)c(-c3ccccc3)coc2c1 (configuration not stated)
56 | 121 | CC1(C)CC(=O)N(CC(COc2ccc(-c3ccc(C#N)cc3)cc2)N(O)C=O)C(=O)C1 (configuration not stated)
57 | 108 | CC(=O)NCCOC(=O)C(Oc1ccc(F)c(C(F)(F)F)c1)c1ccc(Cl)cc1 (configuration not stated)
58 | 334 to 336 | NC(=O)C(CCC(=O)O)N1Cc2c(N)cccc2C1=O (configuration not stated)
59 | 92 to 94 | COC(=O)C(C)Oc1ccc(Oc2ncc(Cl)cc2N)cc1 (configuration not stated)
60 | 132 to 135 | COc1ccc(O[C@@H]2CCNC[C@H]2O)c(Br)c1 (relative stereo)

Row | melting point [°C] | Structure (SMILES)
61 | 140 | Cc1c(NC(=O)OCc2ccccc2)cccc1C(C[N+](=O)[O-])c1c[nH]c2ccc(N3CCOCC3)cc12 (configuration not stated)
62 | 118 to 120 | O=[N+]([O-])c1ccc(OC[C@@H]2CCCN2c2ccc3ccccc3n2)cc1
63 | 130 to 131 | CC(C)c1nn(-c2ccc(C(F)(F)F)cn2)cc1CCCCOc1ccc(CC(=O)O)cc1
64 | 245 to 246 | Cc1cn2c(=O)c3c(F)cccc3nc2s1
65 | 55 to 60 | O=S(=O)(c1ccccc1)c1c[nH]c2cccc(CCO)c12
66 | 215 to 216 | CC(=O)N(C)C1CCc2c([nH]c3ccccc23)C1 (configuration not stated)
67 | 197 to 200 | Oc1ccc(N2CCN(Cc3c[nH]c4ncccc34)CC2)cc1
68 | 246 to 248 | COC(=O)c1cc2c3c(cc([N+](=O)[O-])c2[nH]1)N(C(=O)c1cc2cc(OC)c(OC)c(OC)c2[nH]1)CC3CCl (configuration not stated)
69 | 250 to 254 | Cn1c(COc2ccc(CC3SC(=O)NC3=O)cc2)nc2ccc(Oc3ccc4cccc(NC(=O)Nc5ccc(C(F)(F)F)cc5)c4c3)cc21 (configuration not stated)
70 | 110 to 111 | CCNC(=O)n1ncc2ccc(OC(C)=O)c(CC3CO3)c21 (configuration not stated)
71 | 90 to 95 | O=C(Cn1nccc1-c1ccc(Oc2ccc(F)cc2)cc1)N1CCCC1
72 | 140 to 141 | Cc1sc(N)c(C(=O)c2ccc(Cl)cc2)c1CN1CCN(c2cccc(F)c2)CC1
73 | 310 to 312 | CC(C)(C)NC(=O)Nc1ccc2oc3c(c2c1)CCCC3
74 | 122 to 124 | COC(=O)c1ccc(Cc2cn(C)c3ccc(CCNC(=O)N(C)C)cc23)c(OC)c1
75 | 198 to 200 | CCCOc1ccccc1-c1ccc([N+](=O)[O-])c(=O)[nH]1
76 | 98.1 | Cc1nc2c(n1C)CCCC2=O
77 | 73 to 75 | COC(=O)c1ccc2c(c1)C(C#N)=CCC2
78 | > 310 | O=C(O)C1CCN(c2ccc3nc4[nH]c(=O)[nH]c4cc3c2)CC1
79 | 82 to 84 | CC(=NOCCOc1ccc(CC2SC(=O)NC2=O)cc1)c1cccc(Cl)c1 (configuration not stated)

Row | melting point [°C] | Structure (SMILES)
80 | 130 to 131 | Cc1ccccc1[C@@H](CCC(=O)O)Oc1cc(OCc2ccsc2)ccc1[N+](=O)[O-]
81 | 138 to 141 | CCNC(=O)NCCCNn1c(COCC)nc2c(N)nc3ccccc3c21
82 | 149 to 151 | COc1cc(C(C)=O)ccc1OCCCN1CCC(C(O)(c2cccc(F)c2)c2cccc(F)c2)CC1
83 | 126 | O=C(O)c1nc(C(Cl)(Cl)Cl)n(-c2cccc(C(F)(F)F)c2)n1
84 | 270 to 272 | CNC(=S)n1nc(-c2ccc(Cl)c3ccccc23)nc1N
85 | 107 to 108 | Cc1c(C)c2c(c(C)c1NCc1ccccc1)C(c1ccccc1)CO2 (configuration not stated)
86 | 101 to 103 | Cc1nc2c(F)cccc2c(Cl)c1CCCl
87 | 116 to 119 | CCc1nc2c(C)cc(C)nc2n1Cc1ccc(C(=C(SC)c2nnn[nH]2)c2ccccc2)cc1
88 | 88 | CCCN1CCN(C(=O)C(Cl)Cl)CC1
89 | 176 to 177 | COCCO[C@@H]1c2ccn3c(C)c(C)nc3c2N[C@H](c2ccccc2)[C@H]1OC(=O)OC
90 | 130 to 134 | COc1ccc(NS(=O)(=O)c2cc(C)cc(C(C)(C)C)c2O)cc1
91 | 121 to 122 | CCOP(C)(=O)CC(Cc1ccccc1)NS(=O)(=O)c1ccc(C)cc1 (configuration not stated)
92 | 82 to 83 | COc1ccc(-c2cc(Cl)on2)cc1
93 | 112 | CCc1cc(Br)cc(CC)c1N=C(c1ccccc1)c1ccccc1
94 | 225 to 230 | c1cc2c3c(cccc3c1)C(NCCCCn1ccnc1)=N2
95 | 74 | COC(=O)C1CCCN1C(=O)Cc1c(C)cc(C)cc1C (configuration not stated)
96 | 66 to 68 | COc1ccc(C[C@H]2[C@H](CO)CCCN2C)cc1 (relative stereo)
97 | 104 to 106 | CCOc1ccc(C2=NN(c3ccc(C(=O)N4CCSCC4)cc3)C(=O)[C@H]3CC=CC[C@@H]23)cc1OCC (relative stereo)

From a melting point compilation (Tetko et al.; mined from patent text by program, amines drawn as free bases though some values may be those of a salt)
